Read-outs that look alike come from different tables or passages of the source.
Tests used:
Assay type in all cases: in vivo
[1] = tested on: Dermatophagoides farinae Hughes; assay: Mite repellent effect test (impregnated black paper); conditions: mites counted after 15 minutes, vs acetone control
Description: The repellent effects of compounds shown in Table 1 were evaluated in accordance with the following method. 1. Mite (or mites) under test: Dermatophagoides farinae Hughes. 2. Testing method: Each test compound was diluted with acetone, black paper 2.5 cm square was impregnated with the diluted test compound in such a manner that the test compound is impregnated in a proportion of 100 μg or 1,000 μg per cm^2 and the black paper was air-dried under room temperature for 2 hours. Black paper treated with acetone alone was also provided as a control group. Mites grown at high density were transferred together with a medium to a glass batt (15×20 cm), and a sheet of gauze cut out in the same size was placed thereon. This medium was placed in a plastic closed container controlled at relative humidity of at least 85% with saturated brine and incubated at 25° C. Three sheets of the black paper treated with the test compound were arranged side by side at intervals of at least 5 mm on the gauze to count the number of the mites climbed up the front and back surfaces of the black paper after 15 minutes. This process was repeated 3 times to find an average value, and it was compared with the control group to calculate out a repelling rate in accordance with the following equation. Repelling rate={(A−B)/A}×100(%) wherein A is the number of mites climbed up in the control group, and B is the number of mites climbed up in the treated group.

[2] = tested on: Dermatophagoides farinae Hughes; assay: Miticidal effect test (impregnated folded filter paper); conditions: 1,000 μg per cm^2 on filter paper, 25° C.
Description: The miticidal effects of compounds shown in Table 2 were evaluated in accordance with the following method. • 1. Mite or Mites under test: Dermatophagoides farinae Hughes. • 2. Testing method:
Each test compound was diluted with acetone, filter paper 5×10 cm in size was impregnated with the diluted test compound in such a manner that the test compound is impregnated in a proportion of 1,000 μg per cm^2, and the filter paper was air-dried at room temperature for 2 hours. Filter paper treated with acetone alone was also provided as a control group. Each filter paper was folded in two, and 20 to 40 mites were freed therein to close the open portion with aclip in such a manner that the mites cannot escape. After the filter paper was incubated for 24 hours or 48 hours in an environment of 25° C. and relative humidity of at least 80%, the numbers of the living or dead mites are calculated through a stereoscopic microscope. This process was repeated 3 times to find an average lethality, and it was compared with the untreated group to calculate out a compensated lethality in accordance with the following equation. Compensated lethality={(Y−X)/(100−X)}×100 (%) wherein X is an average lethality in the control group, and Y is an average lethality in the treated group.

[3] = tested on: Dermatophagoides farinae Hughes; assay: Mite growth inhibition test in treated medium; conditions: for inhibition at 0.045 % strength: 0.045 % by weight in medium; for inhibition at 0.12 % strength: 0.12 % by weight in medium; for inhibition at 0.23 % strength: 0.23 % by weight in medium; for inhibition at 0.34 % strength: 0.34 % by weight in medium
Description: The inhibitory effect of methyl dihydrojasmonate on the growth of mites was evaluated in accordance with the following method. • 1. Mite (or Mites) under test: Dermatophagoides farinae Hughes. • 2. Testing method:
After a predetermined amount of methyl dihydrojasmonate diluted with ethanol was added to mite-free sterilized medium (10 g; MF powder feed; Oriental Yeast Co., Ltd.), and both were mixed, the mixture was air-dried at room temperature for at least 3 hours to provide a treated group. A medium mixed with ethanol was provided as a control group. Mites sufficiently grown with the same medium as described above in advance were fully mixed with the medium, and this mixture (1 g) was mixed into the test medium containing methyl dihydrojasmonate and control medium, respectively. After fully stirred, the mites were raised at 25° C. for 22 days. A sample (0.1 g) was taken out of each medium to count the number of active mites through a microscope, thereby calculating out a mite growth-inhibiting rate. Incidentally, the test was repeated 3 times to conduct the evaluation in terms of the average value thereof. Mite growth-inhibiting rate={(T−S)/T}×100 (%) wherein T is the number of viable mites in the control group, and S in the number of viable mites in the treated group.

[4] = concentration of compound 100 μg/cm^2 on black paper
[5] = concentration of compound 1,000 μg/cm^2 on black paper
[6] = 8th day, read-out: Growth-inhibiting rate on the 8th day
[7] = 22nd day, read-out: Growth-inhibiting rate on the 22nd day

| Structure (SMILES) | Repelling rate [1, 4] [%] | Repelling rate [1, 5] [%] | further results |
| --- | --- | --- | --- |
| CCCCCC1=C(C)CCC1=O [Dihydrojasmone] | 80 | 83 |  |
| C/C(=C\CO)CCC[C@H](C)CCC[C@H](C)CCCC(C)C [Phytol] | 52 | 72 |  |
| CCCCCC1C(=O)CCC1CC(=O)OC (stereo not drawn) [Methyl dihydrojasmonate] | 90 | 94 | Compensated lethality ([2]; incubation time 24 hr): 100%; Compensated lethality ([2]; incubation time 48 hr): 100%; inhibition at 0.045 % strength [3, 6]: 75%; inhibition at 0.045 % strength [3, 7]: 54%; inhibition at 0.12 % strength [3, 6]: 86%; inhibition at 0.12 % strength [3, 7]: 61%; inhibition at 0.23 % strength [3, 6]: 93%; inhibition at 0.23 % strength [3, 7]: 69%; inhibition at 0.34 % strength [3, 6]: 92%; inhibition at 0.34 % strength [3, 7]: 80% |
| CC/C=C\CC1=C(C)CCC1=O [cis-Jasmone] | 72 | 85 |  |
| C=CC(C)(O)CCC=C(C)CCC=C(C)C (stereo not drawn) [Nerolidol] | 80 | 79 |  |
| CC/C=C\CC1C(=O)CCC1CC(=O)OC (stereo not drawn) [Methyl jasmonate] | 93 | 97 |  |
| C=C(C)C1CC=C(C)C(=O)C1 (stereo not drawn) [Carvone, reference compound] | 10 | 29 |  |
| CC(C)=CCCC(C)=CCCC(C)=CCO [Farnesol] | 94 | 96 | Compensated lethality ([2]; incubation time 24 hr): 63%; Compensated lethality ([2]; incubation time 48 hr): 77% |
| C=CC(C)(O)CCC=C(C)C (stereo not drawn) [Linalool, reference compound] | 47 | 57 |  |

From patent publication US6914077B2, “Mite repellant and/or miticide composition” (Kao Corporation, priority 2001, dated 2005)
